# From patent US20020013478A1, “Calanolide analogues and methods of their use” (Sarawak Medichem Pharmaceuticals,Inc., priority 1994, published 2002)
# pEC50, pIC50: −log10 of the molar value. Where two headings read alike, the source gives them in different places.
# Experiments:
# [1] = test system: 2.2.15 cells; assay: Toxicity in 2.2.15 cells, neutral red dye uptake; type: cell-based, human; conditions: Table II, read-out: HBV IC50
# Protocol: Cells of 2.2.15 were grown to confluence in 96-well flat-bottomed tissue culture plates and treated with compounds (in 0.2 mL culture medium/well) as described above. Four concentrations of each compound were assayed, each in triplicate cultures, in 3- to 10-fold steps. Untreated control cultures were maintained on each 96-well plate. On each 96-well plate, wells containing no cells were used to correct for light scattering.
# [2] = test system: HCMV; assay: HCMV semi-automated CPE-inhibition assay in human foreskin fibroblast cells; type: cell-based, human cytomegalovirus; conditions: Table II; for EC50: Human betaherpesvirus 5, Fibroblast
# [3] = test system: human foreskin fibroblast cells; assay: Toxicity run with the HCMV assay, human foreskin fibroblast cells; type: cell-based; conditions: Table II; for IC50: Homo sapiens, Fibroblast
# Protocol: (§1) [table] […] The media from the wells is then aspirated and 2 mL of each drug concentration is then added to each well. The cells are then incubated in a CO2 incubator at 37° C. for 72 h. At the end of this time, the media-drug solution is removed and the cells washed. […] The cell-media mixture is then pipetted up and down vigorously to break up the cell suspension, and 0.2 mL of the mixture is added to 9.8 mL of Isoton III and counted using a Coulter Counter. Each sample is counted three times with three replicate wells per sample. The procedure for plating cells and adding drug is the same as for the MTT Assay. After drug addition, the plates are incubated for seven days in a CO2 incubator at 37° C. […] This is incubated in the CO2 incubator for one hour. The dye is aspirated and the cells are washed using a Nunc Plate Washer. […] The plates are rotated for 15 minutes and the optical densities are read at 550 nm on a plate reader.
# [4] = test system: EBV; assay: EBV assay: superinfection of Raji or Daudi cells with P3HR-1, immunofluorescence for EA and VCA; type: cell-based, Epstein-Barr virus; conditions: Table II; for EC50: human gammaherpesvirus 4
# Excerpt: There are two prototypes of infectious EBV. One is exemplified by the virus derived from supernatant fluids of the P3HR-1cell line. This cell line produces nontransforming virus that causes the production of early antigen (EA) after primary infection or superinfection of B cell lines. The other prototype is exemplified by the B-95-8 virus. This virus immortalized cord blood lymphocytes and induced tumors in marmosets.
# The virus used in our assays is P3HR-1.
# Ramos is an exceptional B cell line derived from Burkitt's lymphoma tumor but containing no detectable EBV genome copies and is EBNA negative. Ramos/AW was obtained by in vitro infection of Ramos with the P3HR-1 virus and contains one resident EBV genome copy/cell. Raji is a Burkitt's lymphoma cell line containing 60 EBV genomes/cell, and will be the primary cell used for screening antiviral activity against EBV EA expression. Daudi is a low level producer that contains 152 EBV genome copies/cell. It spontaneously expresses EBV EA in 0.25%-0.5% of the cells. It will be used in follow-up studies to confirm activity. These cell lines respond to superinfection by EBV by expressing EA(D), EA(R), and VCA. All cell lines are maintained in RPMI-1640 medium supplemented by 10% FCS, L-glutamine and 100 μg/mL gentamicin. The cultures are fed twice weekly and the cell concentration adjusted to 3×10^5/mL. The cells are kept at 37° C. in a humidified atmosphere with 5% CO2.
# Cells are infected with the P3HR-1 strain of EBV and the drugs to be tested are added after adsorption (45 minutes at 37° C.) and washing of the cell cultures. The cultures are incubated for two days in complete medium to allow viral gene expression. Following the 48 hr incubation period, the number of cells of each sample are counted and smears made. Monoclonal antibodies to the different EA components and VCA are then added to the cells incubated and washed. This is followed by a fluorescein conjugated rabbit anti-mouse Ig antibody; and the number of fluorescence positive cells in the smears are counted. The total number of cells in the cultures positive for EA or VCA are then calculated and compared.
# [5] = test system: Raji or Daudi cells; assay: Toxicity run with the EBV assay; type: cell-based, human; conditions: Table II; for IC50: Homo sapiens
# Excerpt: IC50 (50% inhibitory concentration) is the concentration required to inhibit cell proliferation by 50%
# [6] = test system: HBV; assay: HBV replication in cultures of 2.2.15 cells, extracellular HBV virion DNA (primary assay); conditions: for pEC50: read-out: HBV EC50
# Protocol: Both intracellular and extracellular HBV DNA are analyzed in order to (i) allow for verification of compound efficacy and (ii) provide possible data on the target site in the HBV replication pathway for the compound from examination of the pattern of viral replicative forms. The culture medium is changed daily during the treatment period to (i) prevent the buildup of potentially toxic metabolites derived from test compounds and (ii) provide an analysis of HBV virion production during discrete 24-hour intervals which enables a quantitative comparison of any effect on virion production.
# The analysis of HBV DNA is performed using blot hybridization techniques (Southern and slot blot) and [^32P]-labeled HBV-specific probes. HBV DNA levels are measured by comparison to known amounts of HBV DNA standards applied to every nitrocellulose membrane (gel or slot blot). An AMBIS beta scanner, which measures the radioactive decay of the hybridized probes directly from the nitrocellulose membranes, is used for the quantitative analysis. Standard curves, generated by multiple analyses, are used to correlate CPM measurements made by the beta scanner with relative levels of target HBV DNA. The levels of HBV virion DNA released into the culture medium are analyzed by a slot blot hybridization procedure.
# [7] = test system: VZV; assay: VZV plaque reduction assay in human foreskin fibroblast cells; type: cell-based, varicella zoster virus; conditions: Table II; for EC50: Human alphaherpesvirus 3, Fibroblast
# Protocol: Two days prior to use, HFF cells are plated into six-well plates and incubated at 37° C. with 5% CO2 and 90% humidity. On the date of assay, the drug is made up at twice the desired concentration in 2x MEM and then serially diluted 1:5 in 2x MEM using six concentrations of drug. The initial starting concentration is usually 200 gg/mL down to 0.06 μg/mL. The virus to be used is diluted in MEM containing 10% FBS to a desired concentration which will give 20-30 plaques per well. The media is then aspirated from the wells and 0.2 mL of virus is added to each well in duplicate with 0.2 mL of media being added to drug toxicity wells. The plates are then incubated for one hour with shaking every fifteen minutes. After the incubation period, an equal amount of 1% agarose was added to an equal volume of each drug dilution. This will give final drug concentrations beginning with 100 μg/mL and ending with 0.03 μg/mL and a final agarose overlay concentration of 0.5%. The drug agarose mixture is applied to each well in 2 mL volume and the plates then incubated for three days, after which the cells were stained with a 1.5% solution of neutral red. At the end of 4-6hr incubation period, the stain is aspirated, and plaques counted using a stereomicroscope at lOx magnification.
# The procedure is essentially the same as for the HSV plaque assay described above with two exceptions:
# 1. After addition of the drug, the plates are incubated for ten days.
# 2. On days three and six, an additional 1 mL overlay with equal amounts of 2x MEM and 1% agarose are added.
# [8] = test system: human foreskin fibroblast cells; assay: Toxicity run with the VZV assay, human foreskin fibroblast cells; type: cell-based; conditions: Table II; for IC50: Homo sapiens, Fibroblast
# Protocol: as §1
# [9] = test system: HCMV isolates Towne, AD169, E. Mann, Coffman, C9208; assay: Anti-CMV plaque reduction assay against various laboratory and clinical isolates (Example 40); type: cell-based, human cytomegalovirus
# Protocol: On the date of assay, the drug is made up at twice the desired concentration in 2x MEM and then serially diluted 1:5 in 2x MEM using six concentrations of drug. The initial starting concentration is usually 200 gg/mL down to 0.06 μg/mL. […] The media is then aspirated from the wells and 0.2 mL of virus is added to each well in duplicate with 0.2 mL of media being added to drug toxicity wells. The plates are then incubated for one hour with shaking every fifteen minutes. […] This will give final drug concentrations beginning with 100 μg/mL and ending with 0.03 μg/mL and a final agarose overlay concentration of 0.5%. The drug agarose mixture is applied to each well in 2 mL volume and the plates then incubated for three days, after which the cells were stained with a 1.5% solution of neutral red. At the end of 4-6hr incubation period, the stain is aspirated, and plaques counted using a stereomicroscope at lOx magnification. The procedure again is nearly the same as for HSV with a few minor changes. […] The assay is incubated for 14 days with the additional 1 mL overlays being applied on days four and eight. The procedure for the liquid overlay plaque assay is similar to that using the agarose overlay. The procedure for adding the virus is the same as for the regular plaque assay. The drugs are made up in a concentration to be used in MEM with 2% FBS. The drugs are not made up at 2x concentration as in the previous assays but are made up at the desired concentration. For HSV-1 and HSV-2 assays, an antibody preparation obtained from Baxter Health Care Corporation is diluted 1:500 and added to the media that the drug is diluted in. For CMV and VZV, no antibody in the overlay is utilized. For the CMV assay, additional medium without new drug is added on day five and allowed to incubate for a total of 10 days. For VZV, additional medium is added on day five and incubated for a total of 10 days. At the end of the incubation period for all of the assays, 2 mL of 1:10 dilution of stock neutral is added to each well incubated for six hours. The liquid is then aspirated off and plaques enumerated using a stereomicroscope. Five calanolide analogues, prepared as described above, were further evaluated for their anti-HCMV activity in plaque reduction assay against various laboratory and clinical isolates (Towne, AD 169, E. Mann, Coffinan, and […]).
# [10] = test system: CEM-SS cells; assay: CEM-SS MTT assay, cytotoxicity (Table I); type: cell-based, human
# [11] = test system: HIV-1; conditions: CEM-SS MTT assay
Compound,pIC50 ([1]; Homo sapiens),EC50 [2],IC50 [3],EC50 [4],IC50 [5],pEC50 ([6]; Hepatitis B virus),pIC50 [1],HCMV EC50 [2],HCMV IC50 [3],EBV EC50 [4],EBV IC50 [5],VZV EC50 [7],VZV IC50 [8],pEC50 ([6]; Table II),also measured
CCCc1cc(=O)oc2c3c(c4c(c12)OC(C)(C)C=C4)O[C@H](C)[C@H](C)C3=O [(+)-7a],3.42,> 4 µg/mL,11.6 µg/mL,> 4 µg/mL,11.9 µg/mL,5.60,–,–,–,–,–,–,–,–,"EC90 ([6]; Hepatitis B virus, read-out: HBV EC90): 11 µM"
"CCCc1cc(=O)oc2c3c(c4c(c12)OC(C)(C)C=C4)O[C@@H](C)[C@H](C)[C@@H]3O [(−)-calanolide B, (-)-Calanolide B]",–,–,–,–,–,–,3.00,2.6 µg/mL,78.4 µg/mL,>50 µg/mL,>50 µg/mL,>4.0 µg/mL,20.0 µg/mL,< 5.00,pEC50 ([9]; isolate AD169): 5.50; pEC50 ([9]; isolate C9208): 5.70; pEC50 ([9]; isolate Coffman): 5.50; pEC50 ([9]; isolate E. Mann): 5.50; pEC50 ([9]; isolate Towne): 5.49
CCCc1cc(=O)oc2c3c(c4c(c12)OC(C)(C)C=C4)OC(C(C)C)C(C)C3=O (racemic) [(+)-15e],–,–,–,–,–,–,4.07,>20 µg/mL,75.3 µg/mL,>50 µg/mL,>50 µg/mL,>100 µg/mL,>100 µg/mL,< 5.00,–
"CCCc1cc(=O)oc2c1c1c(c3oc(C)c(C)c(=O)c32)C=CC(C)(C)O1 [Compound 5, 6,6,10,11-tetramethyl-4-propyl-2H,6H,12H-benzo[1,2-b:3,4-b′:5,6-b″]tripyran-2,12-dione]",2.68,> 100 µg/mL,> 100 µg/mL,> 50 µg/mL,> 50 µg/mL,< 5.00,–,–,–,–,–,–,–,–,EC50 [7]: > 20 µg/mL; IC50 [8]: 52.2 µg/mL
"CCCc1cc(=O)oc2c3c(c4c(c12)OC(C)(C)C=C4)OC(CC)C(C)C3=O (racemic) [(±)-15c, (±)-10,11-trans-10,11-Dihydro-10-ethyl-4-propyl-6,6,11-trimethyl-2H,6H,12H-benzo[1,2-b:3,4-b ″]tripyran-2,12-dione]",–,–,–,–,–,–,3.82,>20 µg/mL,77.6 µg/mL,>50 µg/mL,>50 µg/mL,>20 µg/mL,68.0 µg/mL,< 5.00,pIC50 [10]: 5.17; Maximum Protection (%) [11]: 47%
"CCCc1cc(=O)oc2c3c(c4c(c12)OC(C)(C)C=C4)OC(C)C(C)C3=O (single isomer, unassigned; (-)) [(−)-7]",–,–,–,–,–,–,3.49,>20 µg/mL,23.7 µg/mL,>20 µg/mL,23.7 µg/mL,–,–,< 5.00,–
"CCCc1cc(=O)oc2c3c(c4c(c12)OC(C)(C)CC4)OC(C)C(C)C3=O (single isomer, unassigned; (+)) [(+)-18a]",–,–,–,–,–,–,4.06,>100 µg/mL,>100 µg/mL,>50 µg/mL,>50 µg/mL,>100 µg/mL,>100 µg/mL,< 5.00,–
"CCCc1cc(=O)oc2c3c(c4c(c12)OC(C)(C)CC4)OC(C)C(C)C3=O (racemic) [(±)-18a, (±)-10,11-trans4-Propyl-7,8,10,11-tetrahydro-6,6,10,11-tetramethyl-2H,6H,12H-benzo [1,2-b:3,4-b′5,6-b″]tripyran-2,12-dione]",–,–,–,–,–,–,4.06,>4.0 µg/mL,19.5 µg/mL,24.5 µg/mL,>50 µg/mL,15.4 µg/mL,33.3 µg/mL,< 5.00,pIC50 [10]: 5.04; pEC50 [11]: 5.61; Maximum Protection (%) [11]: 60%
"CCCc1cc(=O)oc2c3c(c4c(c12)OC(C)(C)C=C4)OC(C)(C)C(C)C3=O (racemic) [(±)-15b, (±)-10,11-Dihydro-6,6,10,10,11-pentamethyl-4-propyl-2H, 6H, 12H-benzo[1,2-b:3,4-b′:5,6-b″]tripyran-2,12-dione]",3.51,> 20 µg/mL,52.3 µg/mL,> 50 µg/mL,> 50 µg/mL,< 5.00,–,–,–,–,–,–,–,–,pIC50 ([10]; Homo sapiens): 4.68; EC50 [7]: > 20 µg/mL; IC50 [8]: 66.7 µg/mL
